Broadly, the IC50 is the concentration that gives 50% inhibition.

IC50 data for 15 compounds are collected here from patent publication US20250019387A1 (Frontier Medicines Corporation, priority 0001, published 2025).

The target in this assay is KRAS G12C and cRAF (Ras-binding domain) interaction (Homo sapiens (Human), UniProt P01116, C118S/C51S/C80L/G12C). As to the kind of experiment: Inhibition of KRAS G12C and cRAF binding (AlphaScreen). An outline of the steps: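 Compounds (DMSO) preincubated 19-20 h at room temperature, then RBD with streptavidin donor and glutathione acceptor beads added in 25 mM Hepes pH 7.4, 150 mM NaCl, 5 mM MgCl2, 0.01% Triton X-100, 2% DMSO for 60-90 min. Emission 570 nm (excitation 680 nm); IC50 by 4-parameter fit. Counter-screen used biotin-AviTag-GST instead of RBD.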
Sequence of KRAS G12C and cRAF (Ras-binding domain) interaction (P01116 other isoform, or with tags, fused parts or gaps G12C/C51S/C80L/C118S): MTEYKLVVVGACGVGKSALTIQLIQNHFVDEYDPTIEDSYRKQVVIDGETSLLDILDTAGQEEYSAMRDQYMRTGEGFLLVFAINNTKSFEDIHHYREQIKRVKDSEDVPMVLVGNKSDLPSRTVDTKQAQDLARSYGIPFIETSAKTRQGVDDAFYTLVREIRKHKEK
In general terms: Bead proximity is the source of the signal in Alpha formats.

The mark [1] stands for this setting: GMPPNP-loaded KRAS G12C, 19-20 hours incubation with compound, read-out: IC50 (Inhibition of KRAS G12C and cRAF Binding).
The mark [2] stands for this setting: additional exemplary compounds, KRAS G12C and cRAF binding, read-out: RAF1 RBD IC50.

Like-named read-outs stand apart in the source and are kept apart here.

`C=CC(=O)N1C[C@@H](N(C)c2nc(OC[C@@]34CCCN3C[C@H](F)C4)nc3c(F)c(-c4cccc5cccc(Cl)c45)ncc23)C(F)(F)C1` [Example 285, 1-((R)-4-((7-(8-chloronaphthalen-1-yl)-8-fluoro-2-(((2R,7aS)-2-fluorotetrahydro-1H-pyrrolizin-7a(5H)-yl)methoxy)pyrido[4,3-d]pyrimidin-4-yl)(methyl)amino)-3,3-difluoropyrrolidin-1-yl)prop-2-en-1-one]: the IC50 under setting [1] was over 500 nM. With `C=CC(=O)N1C[C@H](N(C)c2nc(OC[C@@]34CCCN3C[C@H](F)C4)nc3c(F)c(-c4cccc5cccc(Cl)c45)ncc23)CC1C#N` (stereo partly drawn), the concentration for half-maximal inhibition (IC50) under setting [2] was in the range of 10 to 100 nM. For the compound `CN(c1nc(OC[C@@]23CCCN2C[C@H](F)C3)nc2c1CCN(c1cccc3cccc(Cl)c13)C2)[C@@H]1CCN(C(=O)/C=C/c2nc(C3CC3)no2)C1` [Example 120, (E)-1-((R)-3-((7-(8-chloronaphthalen-1-yl)-2-(((2R,7aS)-2-fluorohexahydro-1H-pyrrolizin-7a-yl)methoxy)-5,6,7,8-tetrahydropyrido[3,4-d]pyrimidin-4-yl)(methyl)amino)pyrrolidin-1-yl)-3-(3-cyclopropyl-1,2,4-oxadiazol-5-yl)prop-2-en-1-one], the IC50 under setting [1] was 10 to 100 nM. Regarding `CC(C)c1noc(/C=C/C(=O)N2CC3CC(C2)N3c2nc(OC[C@@]34CCCN3C[C@H](F)C4)nc3c(F)c(-c4cccc5cccc(Cl)c45)ncc23)n1`, the IC50 under setting [2] is over 500 nM.

Take `CN(C)C/C=C/S(=O)(=O)C1CCCN(c2nc(OCC34CCCN3CCC4)nc3c(F)c(-c4cccc5cccc(Cl)c45)ncc23)C1` (stereo not drawn): the half-inhibitory concentration (IC50) under setting [2] was 10 to 100 nM.

Regarding `C=CC(=O)CCCCN(C)c1nc(OC[C@@H]2CCCN2C)nc2c1CCN(c1cccc3ccccc13)C2`, under setting [2], the concentration for half-maximal inhibition (IC50) was in the range of 100 to 500 nM. For the compound `CN(c1nc(OCC23CCCN2CCC3)nc2c(F)c(-c3cccc4ccc(F)c(Cl)c34)ncc12)[C@@H]1CCN(C(=O)/C=C/c2nc(C(C)(C)O)no2)C1` [Example 61, (R,E)-1-(3-((7-(8-chloro-7-fluoronaphthalen-1-yl)-8-fluoro-2-((hexahydro-1H-pyrrolizin-7a-yl)methoxy)pyrido[4,3-d]pyrimidin-4-yl)(methyl)amino)pyrrolidin-1-yl)-3-(3-(2-hydroxypropan-2-yl)-1,2,4-oxadiazol-5-yl)prop-2-en-1-one], the 50% inhibitory concentration (IC50) under setting [1] is 10 to 100 nM. As to `CCN(CC)C/C=C/S(=O)(=O)CCN(C)c1nc(OC[C@@]23CCCN2C[C@H](F)C3)nc2c1CCN(c1cccc3cccc(Cl)c13)C2`, the IC50 under setting [2] is under 10 nM. As to `C=CC(=O)N1CC[C@H](Nc2nc(OC[C@@]34CCCN3C[C@H](F)C4)nc3c2CCN(c2cccc4cccc(Cl)c24)C3)C1`, the IC50 under setting [2] is over 500 nM.

For `CN(C)C/C=C/S(=O)(=O)CCN(C)c1nc(OCC23CCCN2CCC3)nc2c1CCN(c1cccc3ccc(F)c(Cl)c13)C2`, under setting [2], the 50% inhibitory concentration (IC50) was under 10 nM. On the same count and under the same terms, the same measure for `C=CC(=O)N1CC(N(C)c2nc(OCC34CCCN3CCC4)nc3c2CCN(c2cccc4cccc(Cl)c24)C3)C1`: over 500 nM; for `C=CC(=O)N1CCC(N(C)c2nc(OCC34CCCN3CCC4)nc3c2CCN(c2cccc4cccc(Cl)c24)C3)C1CC#N` (stereo not drawn): over 500 nM. As for `CN(c1nc(OCC23CCCN2CCC3)nc2c(F)c(-c3cccc4cccc(Cl)c34)ncc12)[C@@H]1CCN(C(=O)/C=C/c2nc([C@H]3C[C@@H]3F)no2)C1` [Example 129, (E)-1-((R)-3-((7-(8-chloronaphthalen-1-yl)-8-fluoro-2-((tetrahydro-1H-pyrrolizin-7a(5H)-yl)methoxy)pyrido[4,3-d]pyrimidin-4-yl)(methyl)amino)pyrrolidin-1-yl)-3-(3-((1R,2S)-2-fluorocyclopropyl)-1,2,4-oxadiazol-5-yl)prop-2-en-1-one], the concentration for half-maximal inhibition (IC50) under setting [1] was in the range of 10 to 100 nM. Take `C=CC(=O)N1CC[C@@H]1CN(C)c1nc(OC[C@@]23CCCN2C[C@H](F)C3)nc2c1CCN(c1cccc3cccc(Cl)c13)C2`: under setting [2], the concentration for half-maximal inhibition (IC50) is over 500 nM. The same measure, in the same setting: the value for `C=CC(=O)N1CCC[C@@H](N(C)c2nc(OC[C@@]34CCCN3C[C@H](F)C4)nc3c2CCN(c2cccc4cccc(Cl)c24)C3)C1` was over 500 nM.
